Consider ten molecules from PMC7211837, “Design, synthesis, molecular modelling and in vitro screening of monoamine oxidase inhibitory activities of novel quinazolyl hydrazine derivatives” (Royal Society Open Science, 2020).

Data set [1] deals with T1, membrane-bound human MAO-B (Homo sapiens, UniProt P27338).
T1 sequence (P27338 1-520): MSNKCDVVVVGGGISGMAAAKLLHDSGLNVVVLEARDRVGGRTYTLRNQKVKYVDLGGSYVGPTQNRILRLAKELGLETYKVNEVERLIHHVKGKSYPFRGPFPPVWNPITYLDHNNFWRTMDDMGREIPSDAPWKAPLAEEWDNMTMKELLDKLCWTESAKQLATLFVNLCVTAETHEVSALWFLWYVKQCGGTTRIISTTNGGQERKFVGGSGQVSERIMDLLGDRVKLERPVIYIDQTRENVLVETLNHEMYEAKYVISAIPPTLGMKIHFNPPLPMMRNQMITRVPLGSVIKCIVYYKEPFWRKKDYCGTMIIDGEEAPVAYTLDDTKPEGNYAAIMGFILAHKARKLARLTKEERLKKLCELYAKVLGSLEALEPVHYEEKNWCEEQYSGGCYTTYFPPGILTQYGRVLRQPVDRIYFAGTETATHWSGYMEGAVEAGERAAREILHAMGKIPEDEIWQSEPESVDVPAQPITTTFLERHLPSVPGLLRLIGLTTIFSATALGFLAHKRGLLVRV
Briefly: MAO-B inhibition, H2O2/horseradish peroxidase coupled fluorescence assay with tyramine. The data set is classed as biochemical. The conditions noted are these: for inhibition at 10 µM: read-out: % inhibition at 10 μM hMAO-B, 10 μM compound, tyramine 0.32 mM (2 × KM), average of two independent experiments; for maximum inhibition (%) hMAO-B: from dose–response curve, in parentheses after IC50, given if less than 95%; for IC50 (μM) hMAO-B / IC50: tyramine at 2 × KM, seven concentrations 0.01–300 µM, ± s.d., two independent experiments; for IC50: read-out: IC50 (μM) hMAO-B. How it is done: (§1) Incomplete inhibition of activity could arise either from indirect effects on these enzymes or from the compounds acting as substrates at the highest concentrations.
(§2) The activity of MAO was determined using the coupled assay method of [41, 42] in which the product, H2O2, acts with horseradish peroxidase to convert 10-acetyl-3,7-dihydroxyphenoxazine to the fluorescent resorufin. […] The data were analysed using the equation for a three-parameter curve in Graphpad PRISM v. 4, and the % inhibition calculated from the top and bottom of the resulting curve.

Data set [2] addresses T2, membrane-bound human MAO-A (Homo sapiens, UniProt P21397).
T2 sequence (P21397 1-527): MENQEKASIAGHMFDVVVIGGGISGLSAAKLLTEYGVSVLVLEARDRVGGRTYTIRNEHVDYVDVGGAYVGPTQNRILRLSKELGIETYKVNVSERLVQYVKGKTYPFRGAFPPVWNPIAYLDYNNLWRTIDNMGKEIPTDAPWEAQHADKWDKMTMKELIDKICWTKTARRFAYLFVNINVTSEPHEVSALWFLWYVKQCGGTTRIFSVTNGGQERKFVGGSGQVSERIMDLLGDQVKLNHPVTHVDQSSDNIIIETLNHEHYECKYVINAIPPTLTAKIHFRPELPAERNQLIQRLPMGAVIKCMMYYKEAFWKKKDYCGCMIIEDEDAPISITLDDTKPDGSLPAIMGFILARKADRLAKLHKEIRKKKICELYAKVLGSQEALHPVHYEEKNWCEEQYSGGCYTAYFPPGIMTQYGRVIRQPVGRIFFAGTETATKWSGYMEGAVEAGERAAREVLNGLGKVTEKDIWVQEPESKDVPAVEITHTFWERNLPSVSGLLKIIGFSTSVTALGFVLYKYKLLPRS
Nature of the data set: MAO-A inhibition, H2O2/horseradish peroxidase coupled fluorescence assay with tyramine. It counts as biochemical. The conditions noted are these: for inhibition at 10 µM: read-out: % inhibition at 10 μM hMAO-A; for selectivity MAO-A versus MAO-B: from IC50 values on MAO-A and MAO-B; for IC50 (μM) hMAO-A / IC50: tyramine at 2 × KM, seven concentrations 0.01–300 µM, ± s.d., two independent experiments; for IC50: read-out: IC50 (μM) hMAO-A; for mechanism of inhibition of MAO-A: 30 min preincubation, dilution ×100, increasing substrate concentration; for inhibition of MAO-A compared with MAO-B in the screen: screen at 10 µM. How it is done: as §1, §2

In data set [3] the target is T3, MAO-A (Homo sapiens, UniProt P21397).
T3 sequence (P21397 1-527): T2 sequence (P21397 1-527)
Briefly: Oxidation of compound by MAO-A in the standard coupled assay in the absence of tyramine. The data set is classed as biochemical. As for the experimental part:
(§3) Compound 6 in the screening assay with 10 µM inhibitor gave an increased rate of appearance of fluorescence indicating faster production of the product H2O2 (not the slower rate observed with other compounds that inhibit MAO activity).
(§4) Figure 3. Oxidation of 6 (squares) but not 12d (triangles) by MAO-A. The concentration of compound was varied in the standard assay coupled to the production of H2O2 but in the absence of the substrate tyramine.
(§5) The activity of MAO was determined using the coupled assay method of [41, 42] in which the product, H2O2, acts with horseradish peroxidase to convert 10-acetyl-3,7-dihydroxyphenoxazine to the fluorescent resorufin. […] For compounds that gave more than 30% inhibition, the IC50 was determined using seven concentrations of each compound (0.01–300 μM) with substrate at 2 × KM. […] The data were analysed using the equation for a three-parameter curve in Graphpad PRISM v. 4, and the % inhibition calculated from the top and bottom of the resulting curve.

Data set [4] concerns MAO-A. More on the design: method as in PMID 16356714, PMID 20708306, PMID 19043245, PMID 25707011, PMID 25922182. The conditions noted are these: lead structure of Chart 1, earlier series of the group ref 21–25; cited from earlier work.
Substrate in data set [5]: COc1cc(/C=N/NC(=O)CNC(=O)c2cc(Cl)ccc2/N=C/c2ccccc2)ccc1O
Briefly: Oxidation of compound by MAO-A in the standard coupled assay in the absence of tyramine. The data set is classed as biochemical, human. The conditions noted are these: other: compound as substrate. How it is done: as §3, §4, §5

[6] abbreviates: 10 μM compound, tyramine 0.8 mM (2 × KM), average of two independent experiments.

“Also recorded” adds a separate entry of the source. Marks after values point to notes of the source that are not given here.

As usually defined, the inhibition is the percentage by which the read-out fell short of the control. As a reminder, the melting point is the temperature, or range, at which the solid turns liquid. The IC50 is the concentration that gives 50% inhibition. In general, Km refers to the concentration of substrate that gives half-maximal velocity.

Regarding `O=C(CN1C(=O)c2cc(Cl)ccc2NC1c1ccccc1)NN=Cc1ccccc1` (centres unmarked) [5e, N'-Benzylidene-2-(6-chloro-4-oxo-2-phenyl-1,4-dihydroquinazolin-3(2H)-yl)acetohydrazide], the melting point lay within 266 to 270 °C. In addition, the inhibition at 10 µM in data set [1] was found to be 19%. The inhibition at 10 µM in data set [2] (setting [6]) was found to be 10%.

For `O=C(CN1C(=O)c2cc(Cl)ccc2NC1c1ccccc1)NN=Cc1ccc(O)cc1` (centres unmarked) [5g, 2-(6-Chloro-4-oxo-2-phenyl-1,4-dihydroquinazolin-3(2H)-yl)-N'-(4-hydroxybenzylidene)acetohydrazide], the melting point lay within 236 to 240 °C. In addition, in data set [1], the “maximum inhibition (%) hMAO-B” value is “full inhibition”, the inhibition at 10 µM is 36%, the “IC50 (μM) hMAO-B” value was “micromolar affinity” and the IC50 was 11 ± 4 µM. Moreover, in data set [2], the “selectivity MAO-A versus MAO-B” value was “A-selective”, the “IC50 (μM) hMAO-A” value was “micromolar potency” and the IC50 came out at 4.34 ± 1.31 µM. In addition, the inhibition at 10 µM in data set [2] (setting [6]) was 22%.

As to `COc1cc(C=NNC(=O)CN2C(=O)c3cc(Cl)ccc3NC2c2ccccc2)ccc1O` (centres unmarked) [5h, 2-(6-Chloro-4-oxo-2-phenyl-1,4-dihydroquinazolin-3(2H)-yl)-N'-(4-hydroxy-3-methoxybenzylidene)-acetohydrazide], the melting point fell in the range of 240 to 242 °C. In data set [1], the “maximum inhibition (%) hMAO-B” value is on record as “full inhibition”, the inhibition at 10 µM came to 72%, the “IC50 (μM) hMAO-B” value is listed as “micromolar affinity” and the IC50 is 0.44 ± 0.1 µM. Also, in data set [2], the “mechanism of inhibition of MAO-A” value is “competitive inhibition”; the “selectivity MAO-A versus MAO-B” value is recorded as “non-selective”; the “inhibition of MAO-A compared with MAO-B in the screen” value was “equal inhibition of MAO-A and MAO-B; also recorded: equally inhibited”; the “IC50 (μM) hMAO-A” value is “micromolar potency”. Besides, the IC50 in data set [2] is 0.31 ± 0.11 µM. The inhibition at 10 µM in data set [2] (setting [6]) was found to be 70%.

As for `Cc1nc2ccccc2c(=O)n1CC(=O)NN=Cc1ccccc1` [12a, N'-Benzylidene-2-(2-methyl-4-oxoquinazolin-3(4H)-yl)acetohydrazide], the melting point was 242 to 245 °C. Further, the inhibition at 10 µM in data set [1] stood at 26%. For the same molecule, the inhibition at 10 µM in data set [2] (setting [6]) stood at 6%.

Molecule `Cc1nc2ccccc2c(=O)n1CC(=O)NN=Cc1ccc(O)cc1` [12b, N'-(4-Hydroxybenzylidene)-2-(2-methyl-4-oxoquinazolin-3(4H)-yl)acetohydrazide] yielded a melting point of 192 to 195 °C. For the same molecule, in data set [1], the inhibition at 10 µM was determined as 16% and the 50% inhibitory concentration (IC50) is greater than 100 µM. Further, the inhibition at 10 µM in data set [2] (setting [6]) was 16%. Also, in data set [2], the “inhibition of MAO-A compared with MAO-B in the screen” value is “equal inhibition of MAO-A and MAO-B; also recorded: equally inhibited”.

In the case of `COc1ccc(C=NNC(=O)Cn2c(C)nc3ccccc3c2=O)cc1` [12c, N'-(4-Methoxybenzylidene)-2-(2-methyl-4-oxoquinazolin-3(4H)-yl)acetohydrazide], the melting point is > 229 °C (dec.). Besides, the inhibition at 10 µM in data set [1] was found to be 21%. Moreover, the inhibition at 10 µM in data set [2] (setting [6]) worked out at 5%.

`COc1cc(C=NNC(=O)Cn2c(C)nc3ccccc3c2=O)ccc1O` [12d, N'-(4-Hydroxy-3-methoxybenzylidene)-2-(2-methyl-4-oxoquinazolin-3(4H)-yl)acetohydrazide] gave a melting point of 258 to 260 °C. Besides, in data set [1] (30 min preincubation, dilution ×100, increasing substrate concentration), the “mechanism of inhibition of MAO-B” value is listed as “competitive inhibition”. Besides, in data set [1], the “maximum inhibition (%) hMAO-B” value was “full inhibition”, the inhibition at 10 µM is 52%, the “IC50 (μM) hMAO-B” value was “micromolar affinity” and the IC50 is 3.62 ± 0.69 µM. Further, in data set [2], the “mechanism of inhibition of MAO-A” value is listed as “competitive inhibition” and the IC50 turned out to be 1.41 ± 0.47 µM. For the same molecule, the “maximum inhibition (%) hMAO-A” value in data set [2] (from dose–response curve, in parentheses after IC50, given if less than 95%) was 32%. Moreover, the inhibition at 10 µM in data set [2] (setting [6]) came out at 27%.

`COc1cc(/C=N/NC(=O)CNC(=O)c2cc(Cl)ccc2/N=C/c2ccccc2)ccc1O` [compound 6, 2-(((E)-benzylidene)amino)-5-chloro-N-(2-(2-((E)-4-hydroxy-3-methoxybenzylidene)hydrazinyl)-2-oxoethyl)benzamide] gave a melting point of 257 to 259 °C. In addition, in data set [1], the inhibition at 10 µM is 12% and the IC50 turned out to be 9 ± 2.3 µM. Besides, the “H2O2 production / oxidation by MAO-A in the absence of the normal substrate” value at MAO-A [3] (absence of tyramine) is recorded as “gave a measurable rate of H2O2 production”. For the same molecule, the “Vmax for oxidation by MAO-A as % of the Vmax for tyramine” value at MAO-A [3] (same conditions, tyramine run in parallel) was 77%. The “% inhibition at 10 μM hMAO-A” value in data set [2] (setting [6]) is recorded as “none”. For the same molecule, the “IC50 (μM) hMAO-A” value in data set [2] is “(rate increases)^c”.

On to `C/C(=N/NC(=O)Cn1c(=O)c(Cc2ccccc2)nc2ccccc21)c1ccc(O)cc1` [lead structure], for which the “MAO-A activity PIC50” value in the data set on MAO-A [4] is on record as 7.8.

B1: MAO-A (Homo sapiens) (protein)
chain: T2 sequence (P21397 1-527)
As to B1, in data set [5], the Km is 35.5 µM.
